Measurements: patent US20250041461A1, “[177LU] LUTETIUM-PSMA I&T COMPOSITION AND DOSIMETRY, KIT, METHOD OF MAKING, AND METHOD OF USING THEREOF” (Curium US LLC, priority 2023, published 2025)

Assays:
[1] = Eclipse sub-study, cycle 3 dosimetry (16 patients); type: in vivo, human; details: cycle 3, 16 patients
Experimental: To evaluate potential changes in the tracer's kinetics and uptake after multiple treatment cycles, 16 of the 27 patients included in the dosimetry sub study, were imaged at both cycle 1 and cycle 3. Among these, at cycle 3, three patients were imaged at all 4 timepoints and the other 13 were imaged at one or two timepoints only (24 h, 48 h or both 24 h and 48 h) (Table 7 in Appendix 1). For these 13 patients, the TACs obtained at cycle 1 were used for each source organ and scaled to the normalized activity value(s) measured at Cycle 3. For patients imaged at two timepoints, the TACs were preferably scaled using the average scaling factor between the two timepoints.
A subgroup of 16 out of the 27 patients underwent and additional dosimetry assessment at Cycle 3. Among these, three patients had dosimetry performed based on images taken at 4 timepoints, while the remaining patients had dosimetry performed at 1 or 2 imaging timepoints only, as described in Section 4.4.1.
The organ absorbed radiation doses were compared to the mean organ absorbed radiation doses from Cycle 1 for the same subset of patients, as shown in Table 5. The dosimetry estimations obtained at cycle 3 align closely with those from cycle 1. At this timepoint, the kidneys had the highest dose (0.49±0.19 Gy/GBq) but, for most organs, the estimated absorbed dose values were similar to or lower compared to cycle 1. […]

prostate cancer = details: in vivo; cited from earlier work

## O=C([O-])CC[C@H](NC(=O)N[C@@H](CCCCNC(=O)CCCCCCC(=O)NCCCC[C@@H](NC(=O)[C@@H](Cc1ccccc1)NC(=O)[C@@H](Cc1ccc(O)c(I)c1)NC(=O)CC[C@H](C(=O)[O-])N1CCN(CC(=O)[O-])CCN(CC(=O)[O-])CCN(CC(=O)[O-])CC1)C(=O)[O-])C(=O)[O-])C(=O)[O-].[177Lu+3].[H+].[H+].[H+].[H+].[H+] [^177Lu-PSMA I&T, (3S,7S,26R,29R,32R,37R)-29-benzyl-32-(4-hydroxy-3-iodobenzyl)-5,13,20,28,31,34-hexaoxo-37-(4,7,10-tris(carboxymethyl)-1,4,7,10-tetraazacyclododecan-1-yl)-4,6,12,21,27,30,33-heptaazaheptatriacontane-1,3,7,26,37-pentacarboxylic acid; lutetium-177 (III)]
[1]
  absorbed dose, kidneys: 0.49±0.19 Gy/GBq
Prostate cancer
  adverse effects: mainly transient adverse effects
